[ ]: non-standard residue; d: D form. Aib = CC(C)(N)C(=O)O
Test system: primary human T-cells
Assay: Cytokine secretion on protein level in activated primary human T-cells (13-plex FACS / Luminex, supernatant)
Format: cell-based
Summary of the method: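 Cytokine protein in supernatant is read by multiplex FACS or Luminex. Tripeptide-treated HaCaT cells or blood-derived human T-cells are stimulated beforehand with PMA/Ionomycin or IFN-γ. The most relevant analytes are IL-1, IL-2, IL-6, IL-12p70, IL-17, IFN-γ and TNF-α, sampled 48 h and 72 h after stimulation.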

[1] = primary human T-cells stimulated with IFN-γ, 10^−9M
[2] = primary human T-cells stimulated with IFN-γ, substance 10^−9M
[3] = primary human T-cells stimulated with PBS, 10^−9M
[4] = primary human T-cells stimulated with PBS, substance 10^−9M
[5] = primary human T-cells stimulated with PMA/Ionomycin, 10^−9M
[6] = primary human T-cells stimulated with PMA/Ionomycin, substance 10^−9M

Substance: H-Lys-[dP]-Thr-OH [K(D)PT, reference compound]
- IL-1 cytokine concentration [1]: 335.73 pg/mL
- IL-2 cytokine concentration [1]: 79.24 pg/mL
- IL-4 cytokine concentration [1]: 184.31 pg/mL
- IL-5 cytokine concentration [1]: 249.7 pg/mL
- IL-6 cytokine concentration [1]: 93.02 pg/mL
- IL-9 cytokine concentration [1]: 93.74 pg/mL
- IL-10 cytokine concentration [1]: 169.54 pg/mL
- IL-12p70 cytokine concentration [1]: 895.95 pg/mL
- IL-13 cytokine concentration [1]: 72.09 pg/mL
- IL-17 cytokine concentration [1]: 204.05 pg/mL
- IL-22 cytokine concentration [1]: 22747.7 pg/mL
- TNF-α cytokine concentration [1]: 178.65 pg/mL
- IL-1 cytokine concentration [2]: 0 pg/mL
- IL-2 cytokine concentration [2]: 0 pg/mL
- IL-4 cytokine concentration [2]: 0 pg/mL
- IL-5 cytokine concentration [2]: 0 pg/mL
- IL-6 cytokine concentration [2]: 58.47 pg/mL
- IL-9 cytokine concentration [2]: 9.51 pg/mL
- IL-10 cytokine concentration [2]: 33.21 pg/mL
- IL-12 cytokine concentration [2]: 0 pg/mL
- IL-12p70 cytokine concentration [2]: 0 pg/mL
- IL-13 cytokine concentration [2]: 0 pg/mL
- IL-17 cytokine concentration [2]: 0 pg/mL
- IL-22 cytokine concentration [2]: 0 pg/mL
- TNF-α cytokine concentration [2]: 0 pg/mL
- IFN-γ cytokine concentration [3]: 610.05 pg/mL
- IL-1 cytokine concentration [3]: 268.37 pg/mL
- IL-2 cytokine concentration [3]: 435.34 pg/mL
- IL-4 cytokine concentration [3]: 136.29 pg/mL
- IL-5 cytokine concentration [3]: 0 pg/mL
- IL-6 cytokine concentration [3]: 92.39 pg/mL
- IL-9 cytokine concentration [3]: 102.2 pg/mL
- IL-10 cytokine concentration [3]: 126.13 pg/mL
- IL-12p70 cytokine concentration [3]: 114.67 pg/mL
- IL-13 cytokine concentration [3]: 80.48 pg/mL
- IL-17 cytokine concentration [3]: 182.45 pg/mL
- IL-22 cytokine concentration [3]: 0 pg/mL
- TNF-α cytokine concentration [3]: 160.25 pg/mL
- IFN-γ cytokine concentration [4]: 0 pg/mL
- IL-1 cytokine concentration [4]: 147.97 pg/mL
- IL-2 cytokine concentration [4]: 0 pg/mL
- IL-4 cytokine concentration [4]: 0 pg/mL
- IL-5 cytokine concentration [4]: 0 pg/mL
- IL-6 cytokine concentration [4]: 109.89 pg/mL
- IL-9 cytokine concentration [4]: 0 pg/mL
- IL-10 cytokine concentration [4]: 159.09 pg/mL
- IL-12 cytokine concentration [4]: 0 pg/mL
- IL-12p70 cytokine concentration [4]: 0 pg/mL
- IL-13 cytokine concentration [4]: 172.66 pg/mL
- IL-17 cytokine concentration [4]: 127.21 pg/mL
- IL-22 cytokine concentration [4]: 0 pg/mL
- INF-α cytokine concentration [4]: 0 pg/mL
- TNF-a cytokine concentration [4]: 65.47 pg/mL
- TNF-α cytokine concentration [4]: 65.47 pg/mL
- IFN-γ cytokine concentration [5]: 1854.29 pg/mL
- IL-1 cytokine concentration [5]: 69689.2 pg/mL
- IL-2 cytokine concentration [5]: 12000 pg/mL
- IL-4 cytokine concentration [5]: 235.78 pg/mL
- IL-5 cytokine concentration [5]: 173.34 pg/mL
- IL-6 cytokine concentration [5]: 2058.24 pg/mL
- IL-9 cytokine concentration [5]: 162.4 pg/mL
- IL-10 cytokine concentration [5]: 4936.79 pg/mL
- IL-12p70 cytokine concentration [5]: 1703.5 pg/mL
- IL-13 cytokine concentration [5]: 944.87 pg/mL
- IL-17 cytokine concentration [5]: 3116.43 pg/mL
- IL-22 cytokine concentration [5]: 24079 pg/mL
- TNF-α cytokine concentration [5]: 3600 pg/mL
- IFN-γ cytokine concentration [6]: 12070.4 pg/mL
- IL-1 cytokine concentration [6]: 594.38 pg/mL
- IL-2 cytokine concentration [6]: 3486.84 pg/mL
- IL-4 cytokine concentration [6]: 41.83 pg/mL
- IL-5 cytokine concentration [6]: 379.39 pg/mL
- IL-6 cytokine concentration [6]: 1535.49 pg/mL
- IL-9 cytokine concentration [6]: 332.07 pg/mL
- IL-10 cytokine concentration [6]: 877.54 pg/mL
- IL-12 cytokine concentration [6]: 0 pg/mL
- IL-12p70 cytokine concentration [6]: 0 pg/mL
- IL-13 cytokine concentration [6]: 1158.74 pg/mL
- IL-17 cytokine concentration [6]: 1808.01 pg/mL
- IL-22 cytokine concentration [6]: 0 pg/mL
- INF-α cytokine concentration [6]: 12070.42 pg/mL
- TNF-a cytokine concentration [6]: 3998.01 pg/mL
- TNF-α cytokine concentration [6]: 3998.01 pg/mL

Substance: H-Phe-Pro-[Aib]-OH [Example 13]
- secretion / expression of pro-inflammatory cytokines (supernatant) (activated primary human T-cells): decreased expression
- immunomodulatory activity relative to MMF (cells activated with PMA/Ionomycin and IFN-γ, protein and gene level): higher
- IL-1 cytokine concentration [2]: 162.75 pg/mL
- IL-2 cytokine concentration [2]: 187.16 pg/mL
- IL-4 cytokine concentration [2]: 0 pg/mL
- IL-5 cytokine concentration [2]: 15.32 pg/mL
- IL-6 cytokine concentration [2]: 60.51 pg/mL
- IL-9 cytokine concentration [2]: 0 pg/mL
- IL-10 cytokine concentration [2]: 0 pg/mL
- IL-12p70 cytokine concentration [2]: 0 pg/mL
- IL-13 cytokine concentration [2]: 0 pg/mL
- IL-17 cytokine concentration [2]: 81.59 pg/mL
- IL-22 cytokine concentration [2]: 0 pg/mL
- TNF-α cytokine concentration [2]: 0 pg/mL
- IL-1 cytokine concentration [4]: 0 pg/mL
- IL-2 cytokine concentration [4]: 115.73 pg/mL
- IL-4 cytokine concentration [4]: 73.19 pg/mL
- IL-5 cytokine concentration [4]: 0 pg/mL
- IL-6 cytokine concentration [4]: 113.86 pg/mL
- IL-9 cytokine concentration [4]: 10.84 pg/mL
- IL-10 cytokine concentration [4]: 147.54 pg/mL
- IL-12p70 cytokine concentration [4]: 0 pg/mL
- IL-13 cytokine concentration [4]: 0 pg/mL
- IL-17 cytokine concentration [4]: 65.17 pg/mL
- IL-22 cytokine concentration [4]: 0 pg/mL
- INF-α cytokine concentration [4]: 0 pg/mL
- TNF-α cytokine concentration [4]: 50.36 pg/mL
- IL-1 cytokine concentration [6]: 558.46 pg/mL
- IL-2 cytokine concentration [6]: 2092.22 pg/mL
- IL-4 cytokine concentration [6]: 0 pg/mL
- IL-5 cytokine concentration [6]: 354.06 pg/mL
- IL-6 cytokine concentration [6]: 1185.87 pg/mL
- IL-9 cytokine concentration [6]: 248.66 pg/mL
- IL-10 cytokine concentration [6]: 872.88 pg/mL
- IL-12p70 cytokine concentration [6]: 0 pg/mL
- IL-13 cytokine concentration [6]: 1081.09 pg/mL
- IL-17 cytokine concentration [6]: 1069.51 pg/mL
- IL-22 cytokine concentration [6]: 0 pg/mL
- INF-α cytokine concentration [6]: 7456.27 pg/mL
- TNF-α cytokine concentration [6]: 2706.11 pg/mL

Substance: alpha-melanocyte-stimulating hormone [α-MSH, reference compound]
- IL-1 cytokine concentration [1]: 229 pg/mL
- IL-2 cytokine concentration [1]: 0 pg/mL
- IL-4 cytokine concentration [1]: 136.29 pg/mL
- IL-5 cytokine concentration [1]: 145.89 pg/mL
- IL-6 cytokine concentration [1]: 70.19 pg/mL
- IL-9 cytokine concentration [1]: 90.3 pg/mL
- IL-10 cytokine concentration [1]: 109.15 pg/mL
- IL-12p70 cytokine concentration [1]: 727.17 pg/mL
- IL-13 cytokine concentration [1]: 59.46 pg/mL
- IL-17 cytokine concentration [1]: 125.8 pg/mL
- IL-22 cytokine concentration [1]: 0 pg/mL
- TNF-α cytokine concentration [1]: 155.15 pg/mL
- IL-1 cytokine concentration [2]: 0 pg/mL
- IL-2 cytokine concentration [2]: 0 pg/mL
- IL-4 cytokine concentration [2]: 60.49 pg/mL
- IL-5 cytokine concentration [2]: 0 pg/mL
- IL-6 cytokine concentration [2]: 64.54 pg/mL
- IL-9 cytokine concentration [2]: 5.27 pg/mL
- IL-10 cytokine concentration [2]: 43.9 pg/mL
- IL-12 cytokine concentration [2]: 0 pg/mL
- IL-12p70 cytokine concentration [2]: 0 pg/mL
- IL-13 cytokine concentration [2]: 0 pg/mL
- IL-17 cytokine concentration [2]: 0 pg/mL
- IL-22 cytokine concentration [2]: 0 pg/mL
- TNF-α cytokine concentration [2]: 18.85 pg/mL
- IFN-γ cytokine concentration [3]: 584.13 pg/mL
- IL-1 cytokine concentration [3]: 233.71 pg/mL
- IL-2 cytokine concentration [3]: 166.83 pg/mL
- IL-4 cytokine concentration [3]: 158.58 pg/mL
- IL-5 cytokine concentration [3]: 26.63 pg/mL
- IL-6 cytokine concentration [3]: 103.97 pg/mL
- IL-9 cytokine concentration [3]: 93.72 pg/mL
- IL-10 cytokine concentration [3]: 154.89 pg/mL
- IL-12p70 cytokine concentration [3]: 100.99 pg/mL
- IL-13 cytokine concentration [3]: 74.71 pg/mL
- IL-17 cytokine concentration [3]: 123.27 pg/mL
- IL-22 cytokine concentration [3]: 2258.05 pg/mL
- TNF-α cytokine concentration [3]: 127.96 pg/mL
- IFN-γ cytokine concentration [4]: 0 pg/mL
- IL-1 cytokine concentration [4]: 0 pg/mL
- IL-2 cytokine concentration [4]: 139.68 pg/mL
- IL-4 cytokine concentration [4]: 72.42 pg/mL
- IL-5 cytokine concentration [4]: 14.37 pg/mL
- IL-6 cytokine concentration [4]: 117.88 pg/mL
- IL-9 cytokine concentration [4]: 34.99 pg/mL
- IL-10 cytokine concentration [4]: 164.01 pg/mL
- IL-12 cytokine concentration [4]: 0 pg/mL
- IL-12p70 cytokine concentration [4]: 0 pg/mL
- IL-13 cytokine concentration [4]: 185.71 pg/mL
- IL-17 cytokine concentration [4]: 139.74 pg/mL
- IL-22 cytokine concentration [4]: 0 pg/mL
- INF-α cytokine concentration [4]: 0 pg/mL
- TNF-a cytokine concentration [4]: 59.06 pg/mL
- TNF-α cytokine concentration [4]: 59.06 pg/mL
- IFN-γ cytokine concentration [5]: 1049.41 pg/mL
- IL-1 cytokine concentration [5]: 69689.2 pg/mL
- IL-2 cytokine concentration [5]: 12000 pg/mL
- IL-4 cytokine concentration [5]: 200.9 pg/mL
- IL-5 cytokine concentration [5]: 145.89 pg/mL
- IL-6 cytokine concentration [5]: 1542.01 pg/mL
- IL-9 cytokine concentration [5]: 187.5 pg/mL
- IL-10 cytokine concentration [5]: 4311.06 pg/mL
- IL-12p70 cytokine concentration [5]: 1161.04 pg/mL
- IL-13 cytokine concentration [5]: 462.62 pg/mL
- IL-17 cytokine concentration [5]: 2836.14 pg/mL
- IL-22 cytokine concentration [5]: 24400.4 pg/mL
- TNF-α cytokine concentration [5]: 3600 pg/mL
- IFN-γ cytokine concentration [6]: 10814.4 pg/mL
- IL-1 cytokine concentration [6]: 530.55 pg/mL
- IL-2 cytokine concentration [6]: 2307.5 pg/mL
- IL-4 cytokine concentration [6]: 70.32 pg/mL
- IL-5 cytokine concentration [6]: 278.92 pg/mL
- IL-6 cytokine concentration [6]: 1241.17 pg/mL
- IL-9 cytokine concentration [6]: 264.59 pg/mL
- IL-10 cytokine concentration [6]: 977.83 pg/mL
- IL-12 cytokine concentration [6]: 0 pg/mL
- IL-12p70 cytokine concentration [6]: 0 pg/mL
- IL-13 cytokine concentration [6]: 1065.69 pg/mL
- IL-17 cytokine concentration [6]: 1660.92 pg/mL
- IL-22 cytokine concentration [6]: 0 pg/mL
- INF-α cytokine concentration [6]: 10814.35 pg/mL
- TNF-a cytokine concentration [6]: 3346.46 pg/mL
- TNF-α cytokine concentration [6]: 3346.46 pg/mL

— patent US10954269B2, “Anti-inflammatory tripeptides” (Dr. August Wolff Gmbh & Co. KG Arzneimittel, priority 2013, dated 2021)
